Data taken from patent EP4667463A1, “DOMIDE MOLECULAR GLUE DERIVATIVE AND USE THEREOF” (CSPC Megalith Biopharmaceutical Co., Ltd., priority 2023, dated 2024).

The compounds below were run on HL-60 (assay: In vitro anti-tumor activity of molecular glue compounds, CellTiter-Lumi cell viability assay). Conditions: Homo sapiens; HL-60 cells, 96 h incubation; read-out: Cell inhibitory activity (IC50 values) HL-60.
Assay type: cell-based
Description: (§1) Different tumor cells were all commercially available and used for evaluating the anti-tumor inhibitory activity of the compounds of the present disclosure. Various tumor cells were cultured until the cell confluency reached 80%-90%, with cell viability above 90% as determined by trypan blue exclusion. Then, the cells were plated. Specifically, after cell density optimization, 100 µL of each of the cell suspensions of HL-60 and SK-BR-3 cells (cell density: 3000 cells/well), Romas cells (cell density: 6000 cells/well), NCI-H929 cells (cell density: 4000 cells/well), and NCI-H82 cells (cell density: 5000 cells/well) was plated in a BeyoGold™ ultra-low attachment black clear-bottom 96-well plate (Cat. No.: FULA965-24pcs), and the plate was incubated overnight. The next day, after the adherent cells were adhered to the wall and suspension cells requiring aggregation were aggregated, 50 µL of culture medium was aspirated from each well of the 96-well plate. Then, the compounds diluted with the corresponding culture media were added. Specifically, the compounds were serially diluted at a 5-fold gradient starting from the highest concentration of 1 µM, with a final DMSO concentration of 1%o, and the test compounds were then added to the cell culture plate. The plate was incubated in an incubator at 37 °C with 5% carbon dioxide for 96 h. Before measurement, the CellTiter-Lumi™ luminescent cell viability assay reagent was equilibrated to room temperature in the dark. Then, 50 µL of the CellTiter-Lumi™ (Cat. No.: C0065XL) cell viability assay reagent was added to each well of the 96-well plate. The plate was shaken in the dark on a shaker at 300 rpm for 10 min to ensure complete cell lysis. After the reaction was completed, the luminescence was measured on a multi-mode microplate reader. The cell inhibition rate was determined according to the luminescence. Then, a cell viability curve was generated by Graphpad Prism 8.0, and the IC50 values were calculated. The compounds of the present disclosure were tested for activity by the method described above. Table 1. Cell inhibitory activity (IC50 values)
For O=C1CCC(N2Cc3cc(CNC(=O)Nc4ccc(CCCOC5CCNCC56CC6)c(Cl)c4)ccc3C2=O)C(=O)N1 (centres unmarked) [Compound B72], the IC50 was < 10 nM.
In the case of O=C1CCC(N2Cc3cc(CNC(=O)Nc4ccc(CCCOC5CCNC6CC65)c(Cl)c4)ccc3C2=O)C(=O)N1 (centres unmarked) [Compound B71], the IC50 is reported as < 10 nM.
In the case of CNC1CCCC(OCCc2ccc(NC(=O)NCc3ccc4c(c3)CN(C3CCC(=O)NC3=O)C4=O)cc2Cl)C1 (centres unmarked) [Compound B43], the IC50 is reported as < 10 nM.
O=C1CCC(N2Cc3cc(CNC(=O)Nc4ccc(CCCOCC5CCCN5)c(Cl)c4)ccc3C2=O)C(=O)N1 (centres unmarked) [Compound B65] was tested, and the IC50 was < 10 nM.
With O=C1CCC(N2Cc3cc(CNC(=O)Nc4ccc(CCCOCC5CCCNC5)c(Cl)c4)ccc3C2=O)C(=O)N1 (centres unmarked) [Compound B20] the IC50 was < 10 nM.
Work on CNCCOCCC1(c2ccc(NC(=O)NCc3ccc4c(c3)CN(C3CCC(=O)NC3=O)C4=O)cc2Cl)CCCCC1 (centres unmarked) [Compound B51] yielded an IC50 of 10 to 50 nM.
With O=C1CCC(N2Cc3cc(CNC(=O)Nc4ccc(CCOC5CCCNC5)c(Cl)c4)ccc3C2=O)C(=O)N1 (centres unmarked) [Compound B13] the IC50 was < 10 nM.

The compounds below were run on NCI-H82 in the same assay as above. Conditions: Homo sapiens; NCI-H82 cells, 96 h incubation; read-out: Cell inhibitory activity (IC50 values) NCI-H82.
Assay type: cell-based
Description: as §1
For O=C1CCC(N2Cc3cc(CNC(=O)Nc4ccc(CCCOC5CCNCC56CC6)c(Cl)c4)ccc3C2=O)C(=O)N1 (centres unmarked) [Compound B72], the IC50 was 10 to 50 nM.
O=C1CCC(N2Cc3cc(CNC(=O)Nc4ccc(CCCOC5CCNC6CC65)c(Cl)c4)ccc3C2=O)C(=O)N1 (centres unmarked) [Compound B71] gave an IC50 of 10 to 50 nM.
With CNC1CCCC(OCCc2ccc(NC(=O)NCc3ccc4c(c3)CN(C3CCC(=O)NC3=O)C4=O)cc2Cl)C1 (centres unmarked) [Compound B43] the IC50 was 10 to 50 nM.
With O=C1CCC(N2Cc3cc(CNC(=O)Nc4ccc(CCCOCC5CCCN5)c(Cl)c4)ccc3C2=O)C(=O)N1 (centres unmarked) [Compound B65] the IC50 was 10 to 50 nM.
In the case of O=C1CCC(N2Cc3cc(CNC(=O)Nc4ccc(CCCOCC5CCCNC5)c(Cl)c4)ccc3C2=O)C(=O)N1 (centres unmarked) [Compound B20], the IC50 is reported as 10 to 50 nM.
With CNCCOCCC1(c2ccc(NC(=O)NCc3ccc4c(c3)CN(C3CCC(=O)NC3=O)C4=O)cc2Cl)CCCCC1 (centres unmarked) [Compound B51] the IC50 was > 100 nM.
O=C1CCC(N2Cc3cc(CNC(=O)Nc4ccc(CCOC5CCCNC5)c(Cl)c4)ccc3C2=O)C(=O)N1 (centres unmarked) [Compound B13] gave an IC50 of 10 to 50 nM.

The compounds below were run on NCI-H929 in the same assay as above. Conditions: Homo sapiens; NCI-H929 cells, 96 h incubation; read-out: Cell inhibitory activity (IC50 values) NCI-H929.
Assay type: cell-based
Description: as §1
O=C1CCC(N2Cc3cc(CNC(=O)Nc4ccc(CCCOC5CCNCC56CC6)c(Cl)c4)ccc3C2=O)C(=O)N1 (centres unmarked) [Compound B72] was tested, and the IC50 was < 10 nM.
O=C1CCC(N2Cc3cc(CNC(=O)Nc4ccc(CCCOC5CCNC6CC65)c(Cl)c4)ccc3C2=O)C(=O)N1 (centres unmarked) [Compound B71] was tested, and the IC50 was < 10 nM.
In the case of CNC1CCCC(OCCc2ccc(NC(=O)NCc3ccc4c(c3)CN(C3CCC(=O)NC3=O)C4=O)cc2Cl)C1 (centres unmarked) [Compound B43], the IC50 is reported as < 10 nM.
With O=C1CCC(N2Cc3cc(CNC(=O)Nc4ccc(CCCOCC5CCCN5)c(Cl)c4)ccc3C2=O)C(=O)N1 (centres unmarked) [Compound B65] the IC50 was < 10 nM.
With O=C1CCC(N2Cc3cc(CNC(=O)Nc4ccc(CCCOCC5CCCNC5)c(Cl)c4)ccc3C2=O)C(=O)N1 (centres unmarked) [Compound B20] the IC50 was < 10 nM.
Compound CNCCOCCC1(c2ccc(NC(=O)NCc3ccc4c(c3)CN(C3CCC(=O)NC3=O)C4=O)cc2Cl)CCCCC1 (centres unmarked) [Compound B51] has an IC50 of 10 to 50 nM.
O=C1CCC(N2Cc3cc(CNC(=O)Nc4ccc(CCOC5CCCNC5)c(Cl)c4)ccc3C2=O)C(=O)N1 (centres unmarked) [Compound B13] was tested, and the IC50 was < 10 nM.

These compounds were tested on Romas in the same assay as above. Conditions: Romas cells, 96 h incubation; read-out: Cell inhibitory activity (IC50 values) Romas.
Assay type: cell-based
Description: as §1
In the case of O=C1CCC(N2Cc3cc(CNC(=O)Nc4ccc(CCCOC5CCNCC56CC6)c(Cl)c4)ccc3C2=O)C(=O)N1 (centres unmarked) [Compound B72], the IC50 is reported as 10 to 50 nM.
For O=C1CCC(N2Cc3cc(CNC(=O)Nc4ccc(CCCOC5CCNC6CC65)c(Cl)c4)ccc3C2=O)C(=O)N1 (centres unmarked) [Compound B71], the IC50 was < 10 nM.
CNC1CCCC(OCCc2ccc(NC(=O)NCc3ccc4c(c3)CN(C3CCC(=O)NC3=O)C4=O)cc2Cl)C1 (centres unmarked) [Compound B43] was tested, and the IC50 was < 10 nM.
With O=C1CCC(N2Cc3cc(CNC(=O)Nc4ccc(CCCOCC5CCCN5)c(Cl)c4)ccc3C2=O)C(=O)N1 (centres unmarked) [Compound B65] the IC50 was < 10 nM.
With O=C1CCC(N2Cc3cc(CNC(=O)Nc4ccc(CCCOCC5CCCNC5)c(Cl)c4)ccc3C2=O)C(=O)N1 (centres unmarked) [Compound B20] the IC50 was < 10 nM.
For CNCCOCCC1(c2ccc(NC(=O)NCc3ccc4c(c3)CN(C3CCC(=O)NC3=O)C4=O)cc2Cl)CCCCC1 (centres unmarked) [Compound B51], the IC50 was 50 to 100 nM.
Compound O=C1CCC(N2Cc3cc(CNC(=O)Nc4ccc(CCOC5CCCNC5)c(Cl)c4)ccc3C2=O)C(=O)N1 (centres unmarked) [Compound B13] has an IC50 of 10 to 50 nM.

These compounds were tested on SK-BR-3 in the same assay as above. Conditions: Homo sapiens; SK-BR-3 cells, 96 h incubation; read-out: Cell inhibitory activity (IC50 values) SK-BR-3.
Assay type: cell-based
Description: as §1
Work on O=C1CCC(N2Cc3cc(CNC(=O)Nc4ccc(CCCOC5CCNCC56CC6)c(Cl)c4)ccc3C2=O)C(=O)N1 (centres unmarked) [Compound B72] yielded an IC50 of 10 to 50 nM.
O=C1CCC(N2Cc3cc(CNC(=O)Nc4ccc(CCCOC5CCNC6CC65)c(Cl)c4)ccc3C2=O)C(=O)N1 (centres unmarked) [Compound B71] was tested, and the IC50 was < 10 nM.
In the case of CNC1CCCC(OCCc2ccc(NC(=O)NCc3ccc4c(c3)CN(C3CCC(=O)NC3=O)C4=O)cc2Cl)C1 (centres unmarked) [Compound B43], the IC50 is reported as < 10 nM.
In the case of O=C1CCC(N2Cc3cc(CNC(=O)Nc4ccc(CCCOCC5CCCN5)c(Cl)c4)ccc3C2=O)C(=O)N1 (centres unmarked) [Compound B65], the IC50 is reported as < 10 nM.
With O=C1CCC(N2Cc3cc(CNC(=O)Nc4ccc(CCCOCC5CCCNC5)c(Cl)c4)ccc3C2=O)C(=O)N1 (centres unmarked) [Compound B20] the IC50 was < 10 nM.
Compound CNCCOCCC1(c2ccc(NC(=O)NCc3ccc4c(c3)CN(C3CCC(=O)NC3=O)C4=O)cc2Cl)CCCCC1 (centres unmarked) [Compound B51] has an IC50 of 50 to 100 nM.
O=C1CCC(N2Cc3cc(CNC(=O)Nc4ccc(CCOC5CCCNC5)c(Cl)c4)ccc3C2=O)C(=O)N1 (centres unmarked) [Compound B13] gave an IC50 of 10 to 50 nM.
